Measured values: patent EP0726263A2, “Herbicidal (1,3,4)oxadiazoles and thiadiazoles” (American Cyanamid Company, priority 1995, dated 1996)

What was measured:
Format in all cases: in vivo
[1] = tested on: Triticum aestivum; experiment: Herbicidal activity, preemergence test; conditions: pre; sprayed onto soil, 800 g of active material per hectare; evaluated 3 weeks after treatment
In short: (§1)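 Scored visually on a 0-9 scale against untreated sown soil 3 weeks after application. Seeds freshly sown in prepared loam received a soil spray of 800 g/ha active material, applied as a water-diluted acetone solution with 0.4% TRITON X-155 at 900 L/ha.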

[2] = tested on: Echinochloa crus-galli; experiment: Herbicidal activity, preemergence test; conditions: pre; sprayed onto soil, 800 g of active material per hectare; evaluated 3 weeks after treatment
In short: as §1

[3] = tested on: Abutilon theophrasti; experiment: Herbicidal activity, preemergence test; conditions: pre; sprayed onto soil, 800 g of active material per hectare; evaluated 3 weeks after treatment
In short: as §1

[4] = tested on: Lamium purpureum; experiment: Herbicidal activity, preemergence test; conditions: pre; sprayed onto soil, 800 g of active material per hectare; evaluated 3 weeks after treatment
In short: as §1

[5] = tested on: Ambrosia artemisifolia; experiment: Herbicidal activity, preemergence test; conditions: pre; sprayed onto soil, 800 g of active material per hectare; evaluated 3 weeks after treatment
In short: as §1

[6] = tested on: Gossypium hirsutum; experiment: Herbicidal activity, preemergence test; conditions: pre; sprayed onto soil, 800 g of active material per hectare; evaluated 3 weeks after treatment
In short: as §1

[7] = tested on: Zea mays; experiment: Herbicidal activity, preemergence test; conditions: pre; sprayed onto soil, 800 g of active material per hectare; evaluated 3 weeks after treatment
In short: as §1

[8] = tested on: Ipomoea hederacea; experiment: Herbicidal activity, preemergence test; conditions: pre; sprayed onto soil, 800 g of active material per hectare; evaluated 3 weeks after treatment
In short: as §1

[9] = tested on: Setaria viridis; experiment: Herbicidal activity, preemergence test; conditions: pre; sprayed onto soil, 800 g of active material per hectare; evaluated 3 weeks after treatment
In short: as §1

[10] = tested on: Alopecurus myosuroides; experiment: Herbicidal activity, preemergence test; conditions: pre; sprayed onto soil, 800 g of active material per hectare; evaluated 3 weeks after treatment
In short: as §1

[11] = tested on: Veronica persica; experiment: Herbicidal activity, preemergence test; conditions: pre; sprayed onto soil, 800 g of active material per hectare; evaluated 3 weeks after treatment
In short: as §1

[12] = tested on: Amaranthus retroflexus; experiment: Herbicidal activity, preemergence test; conditions: pre; sprayed onto soil, 800 g of active material per hectare; evaluated 3 weeks after treatment
In short: as §1

[13] = tested on: Galium aparine; experiment: Herbicidal activity, preemergence test; conditions: pre; sprayed onto soil, 800 g of active material per hectare; evaluated 3 weeks after treatment
In short: as §1

[14] = tested on: Glycine max; experiment: Herbicidal activity, preemergence test; conditions: pre; sprayed onto soil, 800 g of active material per hectare; evaluated 3 weeks after treatment
In short: as §1

[15] = tested on: Viola arvensis; experiment: Herbicidal activity, preemergence test; conditions: pre; sprayed onto soil, 800 g of active material per hectare; evaluated 3 weeks after treatment
In short: as §1

[16] = tested on: Helianthus annuus; experiment: Herbicidal activity, preemergence test; conditions: pre; sprayed onto soil, 800 g of active material per hectare; evaluated 3 weeks after treatment
In short: as §1

[17] = tested on: Hordeum vulgare; experiment: Herbicidal activity, preemergence test; conditions: pre; sprayed onto soil, 800 g of active material per hectare; evaluated 3 weeks after treatment
In short: as §1

[18] = tested on: Triticum aestivum; experiment: Herbicidal activity, postemergence test; conditions: post; sprayed onto seedling plants, 800 g of active material per hectare; evaluated 2 weeks after treatment
In short: (§2)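 First, test compound in acetone containing 0.4% Triton X-155 is diluted with water. Next, it is sprayed at 800 g/ha (900 L/ha) onto freshly seeded loam (pre) or onto seedlings (post). Finally, plants are scored 0-9 visually after 3 or 2 weeks, respectively.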

[19] = tested on: Echinochloa crus-galli; experiment: Herbicidal activity, postemergence test; conditions: post; sprayed onto seedling plants, 800 g of active material per hectare; evaluated 2 weeks after treatment
In short: as §2

[20] = tested on: Abutilon theophrasti; experiment: Herbicidal activity, postemergence test; conditions: post; sprayed onto seedling plants, 800 g of active material per hectare; evaluated 2 weeks after treatment
In short: as §2

[21] = tested on: Lamium purpureum; experiment: Herbicidal activity, postemergence test; conditions: post; sprayed onto seedling plants, 800 g of active material per hectare; evaluated 2 weeks after treatment
In short: as §2

[22] = tested on: Ambrosia artemisifolia; experiment: Herbicidal activity, postemergence test; conditions: post; sprayed onto seedling plants, 800 g of active material per hectare; evaluated 2 weeks after treatment
In short: as §2

[23] = tested on: Gossypium hirsutum; experiment: Herbicidal activity, postemergence test; conditions: post; sprayed onto seedling plants, 800 g of active material per hectare; evaluated 2 weeks after treatment
In short: as §2

[24] = tested on: Zea mays; experiment: Herbicidal activity, postemergence test; conditions: post; sprayed onto seedling plants, 800 g of active material per hectare; evaluated 2 weeks after treatment
In short: as §2

[25] = tested on: Ipomoea hederacea; experiment: Herbicidal activity, postemergence test; conditions: post; sprayed onto seedling plants, 800 g of active material per hectare; evaluated 2 weeks after treatment
In short: as §2

[26] = tested on: Setaria viridis; experiment: Herbicidal activity, postemergence test; conditions: post; sprayed onto seedling plants, 800 g of active material per hectare; evaluated 2 weeks after treatment
In short: as §2

[27] = tested on: Alopecurus myosuroides; experiment: Herbicidal activity, postemergence test; conditions: post; sprayed onto seedling plants, 800 g of active material per hectare; evaluated 2 weeks after treatment
In short: as §2

[28] = tested on: Veronica persica; experiment: Herbicidal activity, postemergence test; conditions: post; sprayed onto seedling plants, 800 g of active material per hectare; evaluated 2 weeks after treatment
In short: as §2

[29] = tested on: Amaranthus retroflexus; experiment: Herbicidal activity, postemergence test; conditions: post; sprayed onto seedling plants, 800 g of active material per hectare; evaluated 2 weeks after treatment
In short: as §2

[30] = tested on: Galium aparine; experiment: Herbicidal activity, postemergence test; conditions: post; sprayed onto seedling plants, 800 g of active material per hectare; evaluated 2 weeks after treatment
In short: as §2

[31] = tested on: Glycine max; experiment: Herbicidal activity, postemergence test; conditions: post; sprayed onto seedling plants, 800 g of active material per hectare; evaluated 2 weeks after treatment
In short: as §2

[32] = tested on: Viola arvensis; experiment: Herbicidal activity, postemergence test; conditions: post; sprayed onto seedling plants, 800 g of active material per hectare; evaluated 2 weeks after treatment
In short: as §2

[33] = tested on: Stellaria media; experiment: Herbicidal activity, postemergence test; conditions: post; sprayed onto seedling plants, 800 g of active material per hectare; evaluated 2 weeks after treatment
In short: as §2

[34] = tested on: Helianthus annuus; experiment: Herbicidal activity, postemergence test; conditions: post; sprayed onto seedling plants, 800 g of active material per hectare; evaluated 2 weeks after treatment
In short: as §2

[35] = tested on: Hordeum vulgare; experiment: Herbicidal activity, postemergence test; conditions: post; sprayed onto seedling plants, 800 g of active material per hectare; evaluated 2 weeks after treatment
In short: as §2

[36] = tested on: Papaver rhoeas; experiment: Herbicidal activity, preemergence test; conditions: pre; sprayed onto soil, 800 g of active material per hectare; evaluated 3 weeks after treatment
In short: as §1

[37] = tested on: Matricaria inodora; experiment: Herbicidal activity, preemergence test; conditions: pre; sprayed onto soil, 800 g of active material per hectare; evaluated 3 weeks after treatment
In short: as §1

[38] = tested on: Papaver rhoeas; experiment: Herbicidal activity, postemergence test; conditions: post; sprayed onto seedling plants, 800 g of active material per hectare; evaluated 2 weeks after treatment
In short: as §2

[39] = tested on: Matricaria inodora; experiment: Herbicidal activity, postemergence test; conditions: post; sprayed onto seedling plants, 800 g of active material per hectare; evaluated 2 weeks after treatment
In short: as §2

SMILES	TRZAW control rating (0-9) [1]	ABUTH control rating (0-9) [3]	LAMPU control rating (0-9) [4]	GOSHI control rating (0-9) [6]	ZEAMX control rating (0-9) [7]	IPOHE control rating (0-9) [8]	SETVI control rating (0-9) [9]	ALOMY control rating (0-9) [10]	VERPE control rating (0-9) [11]	GALAP control rating (0-9) [13]	GLXMA control rating (0-9) [14]	VIOAR control rating (0-9) [15]	HELAN control rating (0-9) [16]	HORVW control rating (0-9) [17]	TRZAW control rating (0-9) [18]	ABUTH control rating (0-9) [20]	LAMPU control rating (0-9) [21]	GOSHI control rating (0-9) [23]	ZEAMX control rating (0-9) [24]	IPOHE control rating (0-9) [25]	other results
CC(NC(=O)c1nnc(-c2ccccc2)o1)c1cccs1 (racemic) [Example 1]	0 (no effect)	0 (no effect)	7 (good herbicidal effect)	0 (no effect)	0 (no effect)	5 (definite injury)	4 (injury)	0 (no effect)	5 (definite injury)	0 (no effect)	0 (no effect)	6 (herbicidal effect)	0 (no effect)	0 (no effect)	2 (slight effect)	8 (approaching complete kill)	4 (injury)	9 (complete kill)	3 (moderate effect)	5 (definite injury)	ECHCG control rating (0-9) [2]: 0 (no effect); AMBEL control rating (0-9) [5]: 0 (no effect); AMARE control rating (0-9) [12]: 0 (no effect); ECHCG control rating (0-9) [19]: 6 (herbicidal effect); AMBEL control rating (0-9) [22]: 8 (approaching complete kill); SETVI control rating (0-9) [26]: 9 (complete kill); ALOMY control rating (0-9) [27]: 2 (slight effect); VERPE control rating (0-9) [28]: 9 (complete kill); AMARE control rating (0-9) [29]: 9 (complete kill); GALAP control rating (0-9) [30]: 6 (herbicidal effect); GLXMA control rating (0-9) [31]: 8 (approaching complete kill); VIOAR control rating (0-9) [32]: 9 (complete kill); STEME control rating (0-9) [33]: 9 (complete kill); HELAN control rating (0-9) [34]: 9 (complete kill); HORVW control rating (0-9) [35]: 5 (definite injury)
C[C@H](NC(=O)c1nnc(N(C)C)o1)c1ccccc1 [Example 6]	0 (no effect)	0 (no effect)	0 (no effect)	0 (no effect)	0 (no effect)	0 (no effect)	0 (no effect)	0 (no effect)	0 (no effect)	0 (no effect)	0 (no effect)	2 (slight effect)	0 (no effect)	0 (no effect)	1 (trace effect)	2 (slight effect)	1 (trace effect)	2 (slight effect)	0 (no effect)	2 (slight effect)	PAPRH control rating (0-9) [36]: 0 (no effect); MATIN control rating (0-9) [37]: 0 (no effect); PAPRH control rating (0-9) [38]: 0 (no effect); MATIN control rating (0-9) [39]: 0 (no effect); SETVI control rating (0-9) [26]: 0 (no effect); ALOMY control rating (0-9) [27]: 2 (slight effect); VERPE control rating (0-9) [28]: 0 (no effect); GALAP control rating (0-9) [30]: 2 (slight effect); GLXMA control rating (0-9) [31]: 0 (no effect); VIOAR control rating (0-9) [32]: 0 (no effect); HELAN control rating (0-9) [34]: 2 (slight effect); HORVW control rating (0-9) [35]: 2 (slight effect)
